Results as given in patent US20080140036A1, “Antimicrobial Composition” (priority 2004, published 2008).

Tests used:
[1] = cited from earlier work
[2] = system: Candida Albicans; experiment: Franz cell bioassay, infected stratum corneum sheet, ATP assay; format: cell-based; settings: after 2 hours incubation, FIG. 6
Protocol: The concentration of organisms in suspension was determined by fluorescence technique and a viable count used for confirmation by conducting an ATP assay where ATP in cell lysate represents a measure for viable cells. Therefore, the number of viable cells after exposure to drug can be measured for drug activity and was used for suspension method or skin model.
Stratum corneum (SC) sheets were infected with microorganisms in-vitro and a Franz cell was set-up to provide more realistic conditions than agar plate test
A sample of Candida albicans (5×10^7) was dried on the stratum corneum sheet and PBS used as receiver fluid. The Micap formulations were used at 10% aqueous suspensions and the Micap formulations and Pevaryl® were applied to the stratum corneum sheet and incubated at 37° C. The reaction was stopped after set time by dismantling the Franz cell and transferring the stratum corneum into TCA. ATP assay was then carried out on the cell lysate to determine activity.

| Structure (SMILES) | logP(o/w) [1] | ATP remaining [2] |
| --- | --- | --- |
| CCCCCCCC1CCCC(=O)O1 (racemic) [(+−)-5-dodecanolide] | 4.0 |  |
| Fc1cc(F)cc(F)c1 [1,3,5-Trifluorobenzene] | 2.6 |  |
| Fc1cccc(F)c1 [1,3-Difluorobenzene] | 2.4 |  |
| C=CC(C)(CCC=C(C)C)OC(=O)CCCCC (centres unmarked) [1,5-dimethyl-1-vinyl-4-hexenyl hexanoate] | 4.5 |  |
| CCCCCCCCN1CCCC1=O [1-octyl-2-pyrrolidinone] | 3.3 |  |
| CC(C)c1ccccc1O [2-isopropyl phenol] | 2.7 |  |
| CCCCC(C)C(=O)O (centres unmarked) [2-methyl hexanoic acid] | 2.1 |  |
| CC(C)=CC(=O)OCCc1ccccc1 [2-phenylethyl 3-methyl-2-butenoate] | 2.7 |  |
| Cc1cccc(I)c1 [3-Iodotoluene] | 3.7 |  |
| CC(C)CCN [3-methyl butylamine] | 1.1 |  |
| CCc1ccc(O)c(OC)c1 [4-ethyl-2-methoxy phenol] | 2.4 |  |
| CCO [20% ethanol, ethanol] |  | 75% |
| CC/C=C\CCOC(=O)C(C)CC (centres unmarked) [(Z)-3-hexenyl 2-methylbutanoate] | 2.8 |  |
| CC/C=C\CCOC(C)=O [(Z)-3-hexenyl acetate] | 1.5 |  |
| CC/C=C\CCOC(=O)CCC [(Z)-3-hexenyl butanoate] | 2.4 |  |
| CCCCCCCCCC [Decane] | 5.3 |  |

| Structure (SMILES) | logP(o/w) [1] | ATP remaining [2] |
| --- | --- | --- |
| COC(=O)CCCCC(=O)OC [Dimethyl adipate] | 1.4 |  |
| CCCCCCCO [Micap 1-Heptanol, 1-Heptanol] | 3.1 |  |
| CCCCCC1CCCC(=O)O1 (centres unmarked) [Micap 5-decanolide, 5-decanolide] | 3.1 |  |
| CCCCCCCCC [Nonane] | 4.8 |  |
| CCCCCCCCCCCCCC [Tetradecane] | 7.2 |  |
| CCCSSCCC [dipropyl disulfide] | 3.7 |  |
| CCOC(=O)CC(C)C [ethyl 3-methylbutanoate] | 1.8 |  |
| CC/C=C/CC(=O)OCC [ethyl (E)-3-hexenoate] | 1.7 |  |
| CCCCCC(=O)OCC [ethyl hexanoate] | 2.3 |  |
| CCCCCCCCC(=O)OCC [ethyl nonanoate] | 3.7 |  |
| CCCCCC(C)=O [heptan-2-one] | 1.9 |  |
| CCCCCCC(C)=O [octan-2-one] | 2.3 |  |
| CCCCCCCCO [octanol] | 2.8 |  |
| CCCCCCCCOC(C)=O [octyl acetate] | 3.3 |  |
| CCCCCCCCOC(=O)C(C)C [octyl isobutyrate] | 4.2 |  |
| CC(=O)OCC(COC(C)=O)OC(C)=O [triacetin] | 0.4 |  |
